Measurements as given in patent publication US20020137929A1, “1 - (3-heterocyclylphenyl) isothiourea, -isourea, -guanidine and -amidine herbicidal agents” (Intellectual Property Department, BASF Aktiengesellschaft, priority 1998, published 2002).

Assays:
[1] = test system: AMBEL (Ragweed, Common); assay: Postemergence herbicidal evaluation; format: in vivo, Ambrosia artemisifolia
Procedure, shortened: (§1)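 Visual 0–9 rating versus control (stand, vigor, malformation, size, chlorosis, overall appearance), taken four to five weeks post-spray. Two-week-old seedlings received roughly 0.0156–0.500 kg/ha active in acetone/water (50/50) with 0.5% TWEEN 20 via nozzle at 40 psi.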

[2] = test system: IPOHE (Morningglory, Ivyleaf); assay: Postemergence herbicidal evaluation; format: in vivo, Ipomoea hederacea
Procedure, shortened: as §1

[3] = test system: GLXMAW (Soybean, Williams); assay: Postemergence herbicidal evaluation; format: in vivo, Glycine max, (L.) Merr. cv Williams
Procedure, shortened: as §1

[4] = test system: ZEAMX (Corn, Field); assay: Postemergence herbicidal evaluation; format: in vivo, Zea mays
Procedure, shortened: as §1

[5] = test system: ABUTH (Velvetleaf); assay: Preemergence herbicidal evaluation; format: in vivo, Abutilon theophrasti; conditions: rated 4-5 weeks after treatment
Procedure, shortened: (§2)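 Steps: mix seeds into potting soil; plant atop ~1 inch soil; spray compound in aqueous acetone (~0.0156-0.500 kg/ha equivalent); maintain in greenhouse with watering; rate visually 0-9 versus control at 4-5 weeks.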

[6] = test system: AMBEL (Ragweed, Common); assay: Preemergence herbicidal evaluation; format: in vivo, Ambrosia artemisifolia; conditions: rated 4-5 weeks after treatment
Procedure, shortened: as §2

[7] = test system: CASOB (Sicklepod); assay: Preemergence herbicidal evaluation; format: in vivo, Cassia obtusifolia; conditions: rated 4-5 weeks after treatment
Procedure, shortened: as §2

[8] = test system: GALAP (Galium); assay: Preemergence herbicidal evaluation; format: in vivo, Galium aparine; conditions: rated 4-5 weeks after treatment
Procedure, shortened: as §2

[9] = test system: ECHCG (Barnyardgrass); assay: Preemergence herbicidal evaluation; format: in vivo, Echinochloa crus-galli; conditions: rated 4-5 weeks after treatment
Procedure, shortened: as §2

[10] = test system: SETVI (Foxtail, Green); assay: Preemergence herbicidal evaluation; format: in vivo, Setaria viridis; conditions: rated 4-5 weeks after treatment
Procedure, shortened: as §2

[11] = test system: GLXMAW (Soybean, Williams); assay: Preemergence herbicidal evaluation; format: in vivo, Glycine max, (L.) Merr. cv Williams; conditions: rated 4-5 weeks after treatment
Procedure, shortened: as §2

[12] = test system: CYPSE (Flatsedge); assay: Preemergence weed control under flooded paddy conditions; format: in vivo, Cyperus serotinus; conditions: rated 3-4 weeks after treatment
Procedure, shortened: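 Flooded-pot preemergence screen with silt loam and seeds in the upper 0.5 cm. Dose about 0.0313 to 0.500 kg/ha, delivered into flood water; visual 0-9 score after 3 to 4 weeks.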

[13] = test system: ECHORC (Watergrass (Calif.)); assay: Postemergence weed control under flooded paddy conditions; format: in vivo, Echinochloa oryzoides; conditions: postemergence weeds, 3-4 weeks after treatment
Procedure, shortened: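 Herbicidal effect is judged by eye on a 0–9 scale versus control, 3–4 weeks after dosing. Dosing is into flood water kept 1.5–3 cm over the soil, at about 0.0313–0.500 kg/ha in aqueous/acetone 50/50 v/v, on 3–5 cm weeds and 1.5–2.5-leaf rice seedlings.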

With C=CCN1C(=O)C(CC(=O)Nc2ccccc2)SC1=Nc1cc(-n2c(=O)cc(C(F)(F)F)n(C)c2=O)c(F)cc1Cl (stereo not drawn) [Compound 44, 3-Allyl-2-{{2-chloro-5-[3,6-dihydro-3-methyl-2,6-dioxo-4-(trifluoromethyl)-1(2H)-pyrimidinyl]-4-fluorophenyl}imino}-4-oxo-5-thiazolidineacetanilide] the “Postemergence herbicidal rating AMBEL” value ([1]; Rate 0.0156 kg/ha) was 4.0, the “Postemergence herbicidal rating AMBEL” value ([1]; Rate 0.0313 kg/ha) was 4.0 and the “Postemergence herbicidal rating AMBEL” value ([1]; Rate 0.0625 kg/ha) was 7.0. The “Postemergence herbicidal rating AMBEL” value ([1]; Rate 0.1250 kg/ha) was 9.0, the “Postemergence herbicidal rating IPOHE” value ([2]; Rate 0.0156 kg/ha) was 9.0 and the “Postemergence herbicidal rating IPOHE” value ([2]; Rate 0.0313 kg/ha) was 9.0. The “Postemergence herbicidal rating IPOHE” value ([2]; Rate 0.0625 kg/ha) was 9.0, the “Postemergence herbicidal rating IPOHE” value ([2]; Rate 0.1250 kg/ha) was 9.0 and the “Postemergence herbicidal rating GLXMAW” value ([3]; Rate 0.0156 kg/ha) was 4.5. For the same compound, the “Postemergence herbicidal rating GLXMAW” value ([3]; Rate 0.0313 kg/ha) was 5.0, the “Postemergence herbicidal rating GLXMAW” value ([3]; Rate 0.0625 kg/ha) was 5.5 and the “Postemergence herbicidal rating GLXMAW” value ([3]; Rate 0.1250 kg/ha) was 6.0. For the same compound, the “Postemergence herbicidal rating ZEAMX” value ([4]; Rate 0.0156 kg/ha) was 5.0, the “Postemergence herbicidal rating ZEAMX” value ([4]; Rate 0.0313 kg/ha) was 5.0 and the “Postemergence herbicidal rating ZEAMX” value ([4]; Rate 0.0625 kg/ha) was 5.0. For the same compound, the “Postemergence herbicidal rating ZEAMX” value ([4]; Rate 0.1250 kg/ha) was 5.0, the “Preemergence herbicidal rating ABUTH” value ([5]; rate 0.0156 kg/ha) was 0.0 and the “Preemergence herbicidal rating ABUTH” value ([5]; rate 0.0313 kg/ha) was 0.0. For the same compound, the “Preemergence herbicidal rating ABUTH” value ([5]; rate 0.0625 kg/ha) was 0.0, the “Preemergence herbicidal rating ABUTH” value ([5]; rate 0.1250 kg/ha) was 9.0 and the “Preemergence herbicidal rating ABUTH” value ([5]; rate 0.2500 kg/ha) was 9.0. For the same compound, the “Preemergence herbicidal rating ABUTH” value ([5]; rate 0.5000 kg/ha) was 9.0, the “Preemergence herbicidal rating AMBEL” value ([6]; rate 0.0156 kg/ha) was 0.0 and the “Preemergence herbicidal rating AMBEL” value ([6]; rate 0.0313 kg/ha) was 0.0. The “Preemergence herbicidal rating AMBEL” value ([6]; rate 0.0625 kg/ha) was 0.0, the “Preemergence herbicidal rating AMBEL” value ([6]; rate 0.1250 kg/ha) was 0.0 and the “Preemergence herbicidal rating AMBEL” value ([6]; rate 0.2500 kg/ha) was 2.0. For the same compound, the “Preemergence herbicidal rating AMBEL” value ([6]; rate 0.5000 kg/ha) was 4.0, the “Preemergence herbicidal rating CASOB” value ([7]; rate 0.0156 kg/ha) was 0.0 and the “Preemergence herbicidal rating CASOB” value ([7]; rate 0.0313 kg/ha) was 0.0. For the same compound, the “Preemergence herbicidal rating CASOB” value ([7]; rate 0.0625 kg/ha) was 0.0, the “Preemergence herbicidal rating CASOB” value ([7]; rate 0.1250 kg/ha) was 1.0 and the “Preemergence herbicidal rating CASOB” value ([7]; rate 0.2500 kg/ha) was 0.0. For the same compound, the “Preemergence herbicidal rating CASOB” value ([7]; rate 0.5000 kg/ha) was 1.0, the “Preemergence herbicidal rating GALAP” value ([8]; rate 0.0156 kg/ha) was 1.0 and the “Preemergence herbicidal rating GALAP” value ([8]; rate 0.0313 kg/ha) was 1.0. The “Preemergence herbicidal rating GALAP” value ([8]; rate 0.0625 kg/ha) was 1.0, the “Preemergence herbicidal rating GALAP” value ([8]; rate 0.1250 kg/ha) was 9.0 and the “Preemergence herbicidal rating GALAP” value ([8]; rate 0.2500 kg/ha) was 9.0. The “Preemergence herbicidal rating GALAP” value ([8]; rate 0.5000 kg/ha) was 9.0, the “Preemergence herbicidal rating ECHCG” value ([9]; rate 0.0156 kg/ha) was 0.0 and the “Preemergence herbicidal rating ECHCG” value ([9]; rate 0.0313 kg/ha) was 0.0. For the same compound, the “Preemergence herbicidal rating ECHCG” value ([9]; rate 0.0625 kg/ha) was 0.0, the “Preemergence herbicidal rating ECHCG” value ([9]; rate 0.1250 kg/ha) was 0.0 and the “Preemergence herbicidal rating ECHCG” value ([9]; rate 0.2500 kg/ha) was 0.0. The “Preemergence herbicidal rating ECHCG” value ([9]; rate 0.5000 kg/ha) was 0.0, the “Preemergence herbicidal rating SETVI” value ([10]; rate 0.0156 kg/ha) was 0.0 and the “Preemergence herbicidal rating SETVI” value ([10]; rate 0.0313 kg/ha) was 0.0. The “Preemergence herbicidal rating SETVI” value ([10]; rate 0.0625 kg/ha) was 0.0, the “Preemergence herbicidal rating SETVI” value ([10]; rate 0.1250 kg/ha) was 0.0 and the “Preemergence herbicidal rating SETVI” value ([10]; rate 0.2500 kg/ha) was 0.0. The “Preemergence herbicidal rating SETVI” value ([10]; rate 0.5000 kg/ha) was 0.0, the “Preemergence herbicidal rating GLXMAW” value ([11]; rate 0.0156 kg/ha) was 0.0 and the “Preemergence herbicidal rating GLXMAW” value ([11]; rate 0.0313 kg/ha) was 0.0. For the same compound, the “Preemergence herbicidal rating GLXMAW” value ([11]; rate 0.0625 kg/ha) was 0.0, the “Preemergence herbicidal rating GLXMAW” value ([11]; rate 0.1250 kg/ha) was 0.0 and the “Preemergence herbicidal rating GLXMAW” value ([11]; rate 0.2500 kg/ha) was 0.0. For the same compound, the “Preemergence herbicidal rating GLXMAW” value ([11]; rate 0.5000 kg/ha) was 0.0, the “Herbicidal rating CYPSE” value ([12]; 0.0313 kg/ha) was 0.0 and the “Herbicidal rating CYPSE” value ([12]; 0.0625 kg/ha) was 0.0. For the same compound, the “Herbicidal rating CYPSE” value ([12]; 0.1250 kg/ha) was 0.0, the “Herbicidal rating CYPSE” value ([12]; 0.2500 kg/ha) was 0.0 and the “Herbicidal rating ECHORC” value ([13]; rate 0.0313 kg/ha) was 6.0. The “Herbicidal rating ECHORC” value ([13]; rate 0.0625 kg/ha) was 6.0, the “Herbicidal rating ECHORC” value ([13]; rate 0.1250 kg/ha) was 7.0 and the “Herbicidal rating ECHORC” value ([13]; rate 0.2500 kg/ha) was 8.0.
